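Growth conditions: 96-well plates. Treatment: test compound, 48 hours, 5 concentrations. Analysis: linear interpolation between bracketing concentrations; unreached endpoints set to highest concentration. TGI marks complete inhibition of growth.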
Columns and labels:
Experiment in all cases: DTP human tumour cell line panel, 48 h
CCRF-CEM leukemia = system: CCRF-CEM leukemia
MOLT-4 leukemia = system: MOLT-4 leukemia
U251 CNS = system: U251 CNS
OVCAR-8 ovarian = system: OVCAR-8 ovarian
RPMI-8226 leukemia = system: RPMI-8226 leukemia
OVCAR-3 ovarian = system: OVCAR-3 ovarian
OVCAR-4 ovarian = system: OVCAR-4 ovarian
XF 498 CNS = system: XF 498 CNS
KM12 colon = system: KM12 colon
A549 NSCLC = system: A549 NSCLC
ACHN renal = system: ACHN renal
HCT-15 colon = system: HCT-15 colon
DLD-1 colon = system: DLD-1 colon
SF-539 CNS = system: SF-539 CNS
SK-MEL-2 melanoma = system: SK-MEL-2 melanoma
SK-OV-3 ovarian = system: SK-OV-3 ovarian
NCI-H226 lung = system: NCI-H226 lung
SR leukemia = system: SR leukemia
KM20L2 colon = system: KM20L2 colon
LOX IMVI melanoma = system: LOX IMVI melanoma
HOP-62 NSCLC = system: HOP-62 NSCLC
SNB-78 CNS = system: SNB-78 CNS
HOP-92 NSCLC = system: HOP-92 NSCLC
LXFL 529 NSCLC = system: LXFL 529 NSCLC
SW-620 colon = system: SW-620 colon
SF-295 CNS = system: SF-295 CNS
K-562 leukemia = system: K-562 leukemia
COLO 205 colon = system: COLO 205 colon
TK-10 renal = system: TK-10 renal
DMS 114 small cell lung = system: DMS 114 small cell lung
IGROV1 ovarian = system: IGROV1 ovarian
RXF 393 renal = system: RXF 393 renal
NCI-H522 lung = system: NCI-H522 lung
A498 renal = system: A498 renal
UACC-62 melanoma = system: UACC-62 melanoma
SNB-19 CNS = system: SNB-19 CNS
NCI-H460 lung = system: NCI-H460 lung
HCC-2998 colon = system: HCC-2998 colon
MALME-3M melanoma = system: MALME-3M melanoma
SF-268 CNS = system: SF-268 CNS
CAKI-1 renal = system: CAKI-1 renal
M14 melanoma = system: M14 melanoma
DMS 273 small cell lung = system: DMS 273 small cell lung
786-0 renal = system: 786-0 renal
SK-MEL-28 melanoma = system: SK-MEL-28 melanoma
NCI-H23 lung = system: NCI-H23 lung
SNB-75 CNS = system: SNB-75 CNS
HT29 colon = system: HT29 colon
UO-31 renal = system: UO-31 renal
UACC-257 melanoma = system: UACC-257 melanoma
SN12C renal = system: SN12C renal
EKVX NSCLC = system: EKVX NSCLC
RXF-631 renal = system: RXF-631 renal
SK-MEL-5 melanoma = system: SK-MEL-5 melanoma
M19-MEL melanoma = system: M19-MEL melanoma
OVCAR-5 ovarian = system: OVCAR-5 ovarian
HL-60(TB) leukemia = system: HL-60(TB) leukemia
HCT-116 colon = system: HCT-116 colon
HOP-18 NSCLC = system: HOP-18 NSCLC

Measured: TGI

O=[N+]([O-])c1ccc(NC2OCC(O)C(O)C2O)cc1 (stereo not drawn)
not listed: M19-MEL melanoma | OVCAR-5 ovarian | HL-60(TB) leukemia | HCT-116 colon | HOP-18 NSCLC
> 100 µM: all other assays above

C=CCNC1=C(C(=O)OCC)C(=O)CO1
not listed: KM12 colon | SK-OV-3 ovarian | HOP-62 NSCLC | COLO 205 colon | HOP-18 NSCLC
> 100 µM: all other assays above

Cn1cc2c(n1)c(N/N=C/c1ccccc1)nn1nnnc21
not listed: KM12 colon | SK-MEL-2 melanoma | NCI-H522 lung | OVCAR-5 ovarian
> 100 µM: all other assays above

Source: PubChem BioAssay (NCI)
